Counter-ions that a name gives are not always drawn.
Legend:
[1] = test system: phenyl-para-quinone writhing; experiment: phenyl-para-quinone writhing assay in mice (analgesia); assay type: in vivo; settings: s.c.
Excerpt: The compounds of the present invention are useful as analgesic agents. […] Exptl. Biol. Med., 95,729 (1957)].

[2] = test system: ear edema induced by topical application of TPA (phorbol 12-myristate acetate); experiment: TPA-Induced Ear Edema (TPAEE); assay type: in vivo, Female Swiss Webster mice; settings: mice
Method: The purpose of this assay was to determine the ability of a topically-applied compound to prevent ear edema induced by topical application of TPA (phorbol 12-myristate acetate). Female Swiss Webster mice topically received TPA (10 μg/ear) on the right ear and vehicle on the left ear. The test compound (10 μg/ear) was applied to both ears. After five hours, the animals were sacrificed and an ear punch (4 mm) was taken from each ear. The difference in right and left ear punch weights for each animal was determined to assess activity. […] See Young, J. M. et al., J. Invest. Dermatol., 80 (1983), pp. 48-52.

NN=C(c1cnccc1N)c1ccccc1F [(4-Amino-3-pyridinyl)-2-fluorophenylmethanone hydrazone dihydrochloride]
% Inhibition of Writhing ([1]; 20 mg/kg of body wt.): 74%

CC(C)(C)C(=O)Nc1ccncc1-c1n[nH]c2ccccc12 [N-[3-(1H-Indazol-3-yl)-4-pyridinyl]-2,2-dimethylpropanamide]
TPAEE (difference in right and left ear punch weights) ([2]; 10 μg/ear, both ears, five hours, TPA 10 μg/ear on right ear): -31%

CCC(=O)O[C@](Cc1ccccc1)(c1ccccc1)[C@H](C)CN(C)C [Propoxyphene, reference compound]
% Inhibition of Writhing ([1]; 3.9 mg/kg of body wt., standard): 50%

CC(C)(C)C(=O)Nc1ccncc1C(=NN)c1ccccc1F [[4-(2,2-Dimethylpropionamido)-3-pyridinyl]-2-fluorophenylmethanonehydrazonemaleate]
% Inhibition of Writhing ([1]; 20 mg/kg of body wt.): 60%

C[C@]12CCC(=O)C=C1CC[C@@H]1[C@@H]2[C@@H](O)C[C@@]2(C)[C@H]1CC[C@]2(O)C(=O)CO [hydrocortisone, reference compound]
ED50 ([2]; standard, TPA-induced ear edema): 47 μg/ear
